Data reported in PMC9891369, “Deconvoluting binding sites in amyloid nanofibrils using time-resolved spectroscopy” (Chemical Science, 2023).

Legend:
[1] = target: T1, amyloid-β fibrils (Aβ1–40) (Homo sapiens, UniProt P05067); assay: time-resolved photoluminescence titration, two-site non-cooperative fit; assay type: binding; conditions: read-out: Values ^a
T1 construct: gene APP; synthetic Aβ1–40, fibrillar

[2] = target: T1, amyloid-β fibrils (Aβ1–40); assay: time-resolved photoluminescence titration, two-site fit; assay type: binding

T1 sequence (P05067 672-711): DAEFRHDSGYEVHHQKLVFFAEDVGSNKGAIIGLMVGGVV

Row | SMILES | Kd [1] [µM] | Kd [2] [µM]
1 | [Ru+2].c1ccc(-c2ccccn2)nc1.c1ccc(-c2ccccn2)nc1.c1cnc2c(c1)c1nc3nccnc3nc1c1cccnc12 [[Ru(bpy)2(dpqp)]^2+] | 2.2 ± 0.5 | 
2 | [Ru+2].c1ccc(-c2ccccn2)nc1.c1ccc(-c2ccccn2)nc1.c1ccc(-c2ccccn2)nc1 [[Ru(bpy)3]^2+] |  | 4.6
